Tests used:
HT-29 = assay: Cytotoxicity against human HT-29 cells after 96 hrs by microplate reader analysis; assay type: functional, cell-based; details: HT-29, 96 h
A549 = assay: Cytotoxicity against human A549 cells after 96 hrs by microplate reader analysis; assay type: functional, cell-based; details: A549, 96 h
HCT-116 [1] = assay: Cytotoxicity against human HCT116 cells after 96 hrs by microplate reader analysis; assay type: functional, cell-based; details: HCT-116, 96 h
Mus musculus [2] = assay: Toxicity in BALB/c mouse assessed as mortality at 1.5 mg/kg/day, iv administered on day 1, 5 and 9; assay type: organism-based; parameters: route intravenous; details: in vivo
Mus musculus [3] = assay: Toxicity in BALB/c mouse assessed as mortality at 0.75 mg/kg/day, iv administered on day 1, 5 and 9; assay type: organism-based; parameters: route intravenous; details: in vivo
Liver = assay: Metabolic stability in BALB/c mouse liver microsomes at 1 umol/l by LC-MS/MS analysis; assay type: ADME; details: 1 µM
HCT-116 [4] = assay: Antitumor activity against human HCT116 cells xenografted in BALB/c mouse assessed as tumor growth inhibition at 0.75 mg/kg/day, iv administered on day 1, 5 and 9 relative to control; assay type: functional; details: HCT-116, 24 h, read-out: TGI
HCT-116 [5] = assay: Antitumor activity against human HCT116 cells xenografted in BALB/c mouse assessed as tumor growth inhibition at 1.5 mg/kg/day, iv administered on day 1, 5 and 9 relative to control; assay type: functional; details: HCT-116, 24 h, read-out: TGI

| SMILES | IC50 (HT-29) | IC50 (A549) | IC50 (HCT-116 [1]) | Activity (Mus musculus [2]) | Activity (Mus musculus [3]) | Stability (Liver) | inhibition in vivo at 0.75 mg/kg/day (HCT-116 [4]) | inhibition in vivo at 1.5 mg/kg/day (HCT-116 [5]) |
| --- | --- | --- | --- | --- | --- | --- | --- | --- |
| COc1c(Cl)c2c(c(OC)c1OC)-c1ccc(OC)c(=O)cc1[C@@H](NC(=O)c1ccccc1C#N)CC2 | 49.7 nM | 140 nM | 104 nM |  |  |  |  |  |
| COc1c(Cl)c2c(c(OC)c1OC)-c1ccc(OC)c(=O)cc1[C@@H](NC(=O)c1cccc(C#N)c1)CC2 | 1.6 nM | 7.4 nM | 4.1 nM |  |  |  |  |  |
| COc1c(Cl)c2c(c(OC)c1OC)-c1ccc(OC)c(=O)cc1[C@@H](NC(=O)c1ccc(C#N)cc1)CC2 | 6.7 nM | 11.9 nM | 6.7 nM |  |  |  |  |  |
| COc1c(Cl)c2c(c(OC)c1OC)-c1ccc(OC)c(=O)cc1[C@@H](NC(=O)c1ccccc1[N+](=O)[O-])CC2 | 31.7 nM | 56.6 nM | 30.2 nM |  |  |  |  |  |
| COc1c(Cl)c2c(c(OC)c1OC)-c1ccc(OC)c(=O)cc1[C@@H](NC(=O)c1cccc([N+](=O)[O-])c1)CC2 | 0.1 nM | 1.7 nM | 0.8 nM |  |  |  |  |  |
| COc1c(Cl)c2c(c(OC)c1OC)-c1ccc(OC)c(=O)cc1[C@@H](NC(=O)c1ccc([N+](=O)[O-])cc1)CC2 | 6.9 nM | 11.2 nM | 6.2 nM |  |  |  |  |  |
| COc1c(Cl)c2c(c(OC)c1OC)-c1ccc(OC)c(=O)cc1[C@@H](NC(=O)c1cc([N+](=O)[O-])cc([N+](=O)[O-])c1)CC2 | 5 nM | 31.2 nM | 6.8 nM |  |  |  |  |  |
| COc1c(Cl)c2c(c(OC)c1OC)-c1ccc(OC)c(=O)cc1[C@@H](NC(=O)c1ccccc1N(C)C)CC2 | 186 nM | 206 nM | 171 nM |  |  |  |  |  |
| COc1c(Cl)c2c(c(OC)c1OC)-c1ccc(OC)c(=O)cc1[C@@H](NC(=O)c1ccc(N(C)C)cc1)CC2 | 148 nM | 169 nM | 150 nM |  |  |  |  |  |
| COc1c(Cl)c2c(c(OC)c1OC)-c1ccc(OC)c(=O)cc1[C@@H](NC(=O)CN(C)C)CC2 | 46 nM | 160 nM | 67 nM |  |  |  |  |  |
| COc1c(Cl)c2c(c(OC)c1OC)-c1ccc(OC)c(=O)cc1[C@@H](NC(=O)CCN(C)C)CC2 | 354 nM | 960 nM | 539 nM |  |  |  |  |  |
| COc1c(Cl)c2c(c(OC)c1OC)-c1ccc(OC)c(=O)cc1[C@@H](NC(=O)CCC(=O)O)CC2 | 6270 nM | > 5 µg/mL | 6580 nM |  |  |  |  |  |
| COc1c(Cl)c2c(c(OC)c1OC)-c1ccc(OC)c(=O)cc1[C@@H](NC(=O)CCCC(=O)O)CC2 | 2250 nM | 5360 nM | 3680 nM |  |  |  |  |  |
| COc1c(Cl)c2c(c(OC)c1OC)-c1ccc(OC)c(=O)cc1[C@@H](NC(=O)CS)CC2 | 209 nM | 400 nM | 192 nM |  |  |  |  |  |
| COc1c(Cl)c2c(c(OC)c1OC)-c1ccc(OC)c(=O)cc1[C@@H](NC(=O)[C@H](C)O)CC2 | 8.5 nM | 18.7 nM | 7.9 nM |  |  |  |  |  |
| COc1c(Cl)c2c(c(OC)c1OC)-c1ccc(OC)c(=O)cc1[C@@H](NC(=O)[C@@H](C)O)CC2 | 7.2 nM | 19.5 nM | 7.7 nM |  |  |  |  |  |
| CCC(O)(CC)C(=O)N[C@H]1CCc2c(Cl)c(OC)c(OC)c(OC)c2-c2ccc(OC)c(=O)cc21 | 36.5 nM | 38 nM | 38.7 nM |  |  |  |  |  |
| COc1c(Cl)c2c(c(OC)c1OC)-c1ccc(OC)c(=O)cc1[C@@H](NC(=O)CCO)CC2 | 46.1 nM | 230 nM | 48.6 nM |  |  |  |  |  |
| COc1c(Cl)c2c(c(OC)c1OC)-c1ccc(OC)c(=O)cc1[C@@H](NC(=O)CCCO)CC2 | 168 nM | 357 nM | 175 nM |  |  |  |  |  |
| COc1cc2c(c(OC)c1OC)-c1ccc(OC)c(=O)cc1[C@@H](NC(C)=O)CC2 [COLCHICINE] |  |  |  | Non-toxic | Non-toxic | 0.001 mL/min/mg | 14% | 92.6% |

Reference: ChEMBL document CHEMBL3217664, “Synthesis and biological evaluation of 4-chlorocolchicine derivatives as potent anticancer agents with broad effective dosage ranges” (Medchemcomm, 2012)
